Experimental data as given in PMC4451461, “SimC7 Is a Novel NAD(P)H-Dependent Ketoreductase Essential for the Antibiotic Activity of the DNA Gyrase Inhibitor Simocyclinone” (Journal of Molecular Biology, 2015).

What was measured:
Format in all cases: biochemical
[1] = target: T1, DNA gyrase subunit A (GyrA) (Escherichia coli, UniProt P0AES4); experiment: DNA gyrase supercoiling inhibition; SPR showed only weak, non-specific binding to GyrA; parameters: DNA gyrase; with GyrB
Target sequence in this assay (P0AES4 2-875): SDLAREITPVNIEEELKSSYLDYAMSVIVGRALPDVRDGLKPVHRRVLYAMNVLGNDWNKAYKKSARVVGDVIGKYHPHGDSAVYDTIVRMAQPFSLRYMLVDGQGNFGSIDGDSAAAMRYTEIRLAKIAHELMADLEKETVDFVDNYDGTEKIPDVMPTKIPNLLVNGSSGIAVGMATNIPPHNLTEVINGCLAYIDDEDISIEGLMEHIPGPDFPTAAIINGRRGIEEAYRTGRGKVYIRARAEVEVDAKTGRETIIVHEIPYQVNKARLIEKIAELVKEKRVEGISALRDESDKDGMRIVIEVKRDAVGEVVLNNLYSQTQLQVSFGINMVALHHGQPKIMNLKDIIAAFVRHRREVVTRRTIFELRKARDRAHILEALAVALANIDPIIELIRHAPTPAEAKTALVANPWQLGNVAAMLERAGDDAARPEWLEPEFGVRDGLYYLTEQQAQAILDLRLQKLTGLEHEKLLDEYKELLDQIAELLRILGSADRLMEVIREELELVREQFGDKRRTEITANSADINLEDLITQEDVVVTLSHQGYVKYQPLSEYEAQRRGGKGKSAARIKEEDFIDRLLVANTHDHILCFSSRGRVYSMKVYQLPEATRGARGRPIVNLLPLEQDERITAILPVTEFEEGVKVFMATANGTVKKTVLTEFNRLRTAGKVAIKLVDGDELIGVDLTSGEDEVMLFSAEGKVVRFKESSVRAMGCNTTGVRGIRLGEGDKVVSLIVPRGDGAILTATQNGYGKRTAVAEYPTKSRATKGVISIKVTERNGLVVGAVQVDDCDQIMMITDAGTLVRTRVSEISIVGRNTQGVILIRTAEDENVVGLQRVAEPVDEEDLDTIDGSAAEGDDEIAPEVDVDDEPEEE

[2] = target: T1, DNA gyrase subunit A (GyrA); experiment: DNA gyrase inhibition (supercoiling) assay; parameters: DNA gyrase; with GyrB
Target sequence in this assay (P0AES4 2-875): as above

SimC7 [3] = target: T2, SimC7 (Streptomyces antibioticus, UniProt G9VYV4); experiment: HPLC-UV ketoreductase assay ([…] NAD(P)H)
T2 construct: N-terminally His-tagged SimC7
T2 sequence (G9VYV4 1-284): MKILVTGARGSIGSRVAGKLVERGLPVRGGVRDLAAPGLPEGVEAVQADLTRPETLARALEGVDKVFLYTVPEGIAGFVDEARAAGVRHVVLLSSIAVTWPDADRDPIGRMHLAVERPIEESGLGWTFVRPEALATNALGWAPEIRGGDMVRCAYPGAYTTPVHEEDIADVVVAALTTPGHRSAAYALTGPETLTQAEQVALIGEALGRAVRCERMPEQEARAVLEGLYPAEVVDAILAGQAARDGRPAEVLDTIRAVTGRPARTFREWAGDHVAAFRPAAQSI

[4] = target: T1, DNA gyrase subunit A (GyrA); experiment: SPR to GyrA N-terminal domain (data not shown); DNA gyrase supercoiling inhibition; parameters: GyrA N-terminal domain (SPR); DNA gyrase (supercoiling); with GyrB (supercoiling assay)
Text: SPR to GyrA N-terminal domain (data not shown); DNA gyrase supercoiling inhibition on DNA gyrase subunit A (GyrA) | SD8 bound to the GyrA N-terminal domain with a similar affinity to that reported previously
Target sequence in this assay (P0AES4 2-523): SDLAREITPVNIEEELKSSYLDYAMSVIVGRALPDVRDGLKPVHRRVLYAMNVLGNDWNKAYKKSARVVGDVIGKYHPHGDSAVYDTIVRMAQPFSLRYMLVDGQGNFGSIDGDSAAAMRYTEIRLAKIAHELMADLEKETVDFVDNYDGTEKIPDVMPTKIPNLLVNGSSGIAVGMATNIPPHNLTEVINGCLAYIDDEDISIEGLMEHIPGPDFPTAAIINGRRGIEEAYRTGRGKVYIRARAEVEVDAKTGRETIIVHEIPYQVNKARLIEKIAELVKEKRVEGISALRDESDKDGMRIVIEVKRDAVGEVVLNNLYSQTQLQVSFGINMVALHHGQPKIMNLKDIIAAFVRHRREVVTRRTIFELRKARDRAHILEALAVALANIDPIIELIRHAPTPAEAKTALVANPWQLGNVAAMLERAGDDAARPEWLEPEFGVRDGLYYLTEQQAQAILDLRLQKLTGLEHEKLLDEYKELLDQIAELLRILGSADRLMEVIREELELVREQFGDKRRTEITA

SimC7 [5] = target: T2, SimC7; experiment: HPLC-UV ketoreductase assay; also oxidised as substrate in the reverse reaction

For CC(=O)O[C@@H]1[C@@H](C)O[C@@H](c2ccc3c(c2O)C(=O)[C@]24O[C@@]2(C3=O)[C@@]2(O)C(=O)C=C(C)C[C@@]2(O)C[C@@H]4O)C[C@H]1OC(=O)/C=C/C=C/C=C/C=C/C(=O)Nc1c(O)c2ccc(O)c(Cl)c2oc1=O [7-oxo-SD8], the IC50 [1] was 50 to 100 µM.

In the case of COC(=O)/C=C/C=C/C=C/C=C/C(=O)Nc1c(O)c2ccc(O)c(Cl)c2oc1=O [MGD8N2A], the IC50 [2] is reported as 25 µM.

With NC(=O)C1=CN([C@@H]2O[C@H](COP(=O)(O)OP(=O)(O)OC[C@H]3O[C@@H](n4cnc5c(N)ncnc54)[C@H](O)[C@@H]3O)[C@@H](O)[C@H]2O)C=CC1 [NADH] the “HPLC-UV ketoreductase assay (0.3 mM NAD(P)H)” value (SimC7 [3]) was “SimC7 was able to use NADH or NADPH for the reduction (Fig. 6b)”.

In the case of NC(=O)C1=CN([C@@H]2O[C@H](COP(=O)(O)OP(=O)(O)OC[C@H]3O[C@@H](n4cnc5c(N)ncnc54)[C@H](OP(=O)(O)O)[C@@H]3O)[C@@H](O)[C@H]2O)C=CC1 [NADPH], the “HPLC-UV ketoreductase assay (0.3 mM NAD(P)H)” value (SimC7 [3]) is reported as “SimC7 was able to use NADH or NADPH for the reduction (Fig. 6b) but showed a preference for NADPH”.

In the case of CC(=O)O[C@@H]1[C@@H](C)O[C@@H](c2ccc3c(c2O)[C@H](O)[C@]24O[C@@]2(C3=O)[C@@]2(O)C(=O)C=C(C)C[C@@]2(O)C[C@@H]4O)C[C@H]1OC(=O)/C=C/C=C/C=C/C=C/C(=O)Nc1c(O)c2ccc(O)c(Cl)c2oc1=O [SD8, simocyclinone D8], the IC50 [4] is reported as 0.1 to 0.5 µM.

In the case of CC(=O)O[C@@H]1[C@@H](C)O[C@@H](c2ccc3c(c2O)[C@H](O)[C@]24O[C@@]2(C3=O)[C@@]2(O)C(=O)C=C(C)C[C@@]2(O)C[C@@H]4O)C[C@H]1OC(=O)/C=C/C=C/C=C/C=C/C(=O)Nc1c(O)c2ccc(O)c(Cl)c2oc1=O [compound 2, simocyclinone D8], the “HPLC-UV ketoreductase assay; also oxidised as substrate in the reverse reaction” value (SimC7 [5]) is reported as “It was also possible to assay the reaction in the reverse direction, following the oxidation of SD8 to 7-oxo-SD8 by SimC7”.
